Results reported in patent US12162872B2, “Cycloalkylurea derivative” (Sumitomo Pharma Co., Ltd., priority 2019, dated 2024).

Molecular target: T1, Human orexin receptor type 2 (Homo sapiens, UniProt O43614)
T1 construct: expressed in transfected cells; host or cells: CHO cells (transient expression)
T1 sequence (O43614 1-444): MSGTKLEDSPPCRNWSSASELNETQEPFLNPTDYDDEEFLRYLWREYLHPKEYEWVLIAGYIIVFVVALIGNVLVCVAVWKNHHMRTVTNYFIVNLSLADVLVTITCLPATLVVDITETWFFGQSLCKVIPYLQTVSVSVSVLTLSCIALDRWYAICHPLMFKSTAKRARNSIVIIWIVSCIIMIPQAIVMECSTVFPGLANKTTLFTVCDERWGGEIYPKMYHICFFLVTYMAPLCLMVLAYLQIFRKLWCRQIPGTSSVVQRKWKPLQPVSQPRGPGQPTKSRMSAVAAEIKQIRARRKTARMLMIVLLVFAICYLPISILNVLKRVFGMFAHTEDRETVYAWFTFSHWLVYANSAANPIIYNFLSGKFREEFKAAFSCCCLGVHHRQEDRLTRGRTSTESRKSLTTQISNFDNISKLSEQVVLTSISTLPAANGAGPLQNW
Test: Test 2: Evaluation of agonist activity for orexin receptor type 2 (aequorin luminescence, intracellular calcium mobilization in CHO cells)
Assay type: cell-based
Conditions: relative percentage of luminescence for the luminescence (100%) of Orexin A (100 pM); CHO cells transiently expressing human orexin receptor type 2 and apoaequorin; Orexin A Lot. 671009
Description: Test 2: Evaluation of Agonist Activity for Orexin Receptor Type 2
Human orexin receptor type 2 and apoaequorin were transiently expressed in CHO cells, and the agonist activity was evaluated based on intracellular calcium mobilization with ligand stimulation. The CHO cells transiently-expressed human orexin receptor type 2 and apoaequorin were seeded on a 384-well plate by 2,000 cells/well, and then incubated for 16-22 hours. After the plate was returned to room temperature, Coelenterazine hcp (final concentration: 1 μM) was added to the plate, and the plate was allowed to stand at room temperature for 2 hours. And then, Orexin A (PEPTIDE INSTITUTE, INC., Lot. 671009) or each test compound was added to the plate, and the luminescence of the cells was measured with FDSS7000 (Hamamatsu Photonics K.K.), wherein Orexin A and each test compound were dissolved in DMSO (final concentration: 0.1%), and diluted with a buffer (Hanks, 20 mM HEPES, 0.1% BSA). The agonist activity of each test compound for orexin receptor type 2 was calculated as relative percentage of luminescence for the luminescence (100%) of Orexin A (100 pM).

Row | SMILES | agonist activity (%)
1 | CC(C)N1CCN([C@H]2CCC[C@@H](F)[C@@H]2NC(=O)N2CCC(C)(c3noc(C4CC4)n3)CC2)CC1 (racemic) [Example 139, rac-4-(5-cyclopropyl-1,2,4-oxadiazol-3-yl)-N-{(1R,2R,6S)-2-fluoro-6-[4-(propan-2-yl)piperazin-1-yl]cyclohexyl}-4-methylpiperidine-1-carboxamide] | 351
2 | CC(C)N1CCN([C@H]2CCCCC[C@@H]2NC(=O)N2CCC(C)(c3noc(C4CC4)n3)CC2)CC1 (racemic) [Example 151, rac-4-(5-cyclopropyl-1,2,4-oxadiazol-3-yl)-4-methyl-N-{(1S,2S)-2-[4-(propan-2-yl)piperazin-1-yl]cycloheptyl}piperidine-1-carboxamide] | 368
3 | CC(C)N1CCN([C@@H]2CCCC(F)(F)[C@H]2NC(=O)N2CCC(C)(c3noc([C@H]4C[C@H]4F)n3)CC2)CC1 [Example 82, N-{(1S,6R)-2,2-difluoro-6-[4-(propan-2-yl)piperazin-1-yl]cyclohexyl}-4-{5-[(1R,2R)-2-fluorocyclopropyl]-1,2,4-oxadiazol-3-yl}-4-methylpiperidine-1-carboxamide] | 69
4 | CC(C)N1CCC(O[C@H]2CCCC(F)(F)[C@@H]2NC(=O)N2CCC(C)(c3noc([C@@H]4C[C@@H]4F)n3)CC2)CC1 [Example 83, N-[(1R,6S)-2,2-difluoro-6-{[1-(propan-2-yl)piperidin-4-yl]oxy}cyclohexyl]-4-{5-[(1S,2S)-2-fluorocyclopropyl]-1,2,4-oxadiazol-3-yl}-4-methylpiperidine-1-carboxamide] | 371
5 | CC(C)N1CCC(O[C@H]2CCCC(F)(F)[C@@H]2NC(=O)N2CCC(C)(c3noc(C4CC4)n3)CC2)CC1 [Example 84, 4-(5-cyclopropyl-1,2,4-oxadiazol-3-yl)-N-[(1R,6S)-2,2-difluoro-6-{[1-(propan-2-yl)piperidin-4-yl]oxy}cyclohexyl]-4-methylpiperidine-1-carboxamide] | 372
6 | CC(C)c1nc([C@H]2CCCC(F)(F)[C@@H]2NC(=O)N2CCC(C)(c3noc(C4CC4)n3)CC2)no1 [Example 85, 4-(5-cyclopropyl-1,2,4-oxadiazol-3-yl)-N-{(1R,6S)-2,2-difluoro-6-[5-(propan-2-yl)-1,2,4-oxadiazol-3-yl]cyclohexyl}-4-methylpiperidine-1-carboxamide] | 360
7 | CC(C)c1nc([C@H]2CCCC(F)(F)[C@@H]2NC(=O)N2CCC(C)(c3noc([C@@H]4C[C@@H]4F)n3)CC2)no1 [Example 86, N-{(1R,6S)-2,2-difluoro-6-[5-(propan-2-yl)-1,2,4-oxadiazol-3-yl]cyclohexyl}-4-{5-[(1S,2S)-2-fluorocyclopropyl]-1,2,4-oxadiazol-3-yl}-4-methylpiperidine-1-carboxamide] | 367
8 | CC(C)c1nsc(O[C@H]2CCCC(F)(F)[C@@H]2NC(=O)N2CCC(C)(c3noc([C@@H]4C[C@@H]4F)n3)CC2)n1 [Example 87, N-[(1R,6S)-2,2-difluoro-6-{[3-(propan-2-yl)-1,2,4-thiadiazol-5-yl]oxy}cyclohexyl]-4-{5-[(1S,2S)-2-fluorocyclopropyl]-1,2,4-oxadiazol-3-yl}-4-methylpiperidine-1-carboxamide] | 226
9 | CC(C)n1cc(O[C@H]2CCCC(F)(F)[C@@H]2NC(=O)N2CCC(C)(c3noc([C@@H]4C[C@@H]4F)n3)CC2)cn1 [Example 88, N-[(1R,6S)-2,2-difluoro-6-{[1-(propan-2-yl)-1H-pyrazol-4-yl]oxy}cyclohexyl]-4-{5-[(1S,2S)-2-fluorocyclopropyl]-1,2,4-oxadiazol-3-yl}-4-methylpiperidine-1-carboxamide] | 201
10 | CC(C)N1CC(O[C@H]2CCCC(F)(F)[C@@H]2NC(=O)N2CCC(C)(c3noc([C@@H]4C[C@@H]4F)n3)CC2)C1 [Example 89, N-[(1R,6S)-2,2-difluoro-6-{[1-(propan-2-yl)azetidin-3-yl]oxy}cyclohexyl]-4-{5-[(1S,2S)-2-fluorocyclopropyl]-1,2,4-oxadiazol-3-yl}-4-methylpiperidine-1-carboxamide] | 0
